Experimental data from patent US4895853A, “Antitumor alkaloids” (priority 1986, dated 1990).
≈ marks a conversion by molar mass, not a printed value. Where two headings read alike, the source gives them in different places.

Test system: P388 mouse leukemia cells
Assay: P388 mouse leukemia cell assay (growth inhibition, 48 h)
Type: cell-based
Conditions: read-out: P388 IC50
Procedure: The following assay method was utilized to illustrate the antitumor effectiveness of the compositions of Formulae I-V corresponding to manzamines B-D of the examples.
P388 mouse leukemia cells are grown in Dulbecco MEM medium with 10% horse serum, 4 mM glutamine, and 20 ug/ml gentamycin (Biologos, Inc.). Cells are incubated in 10% CO2 and subcultured 2 times per week.
1. Add compound to each well of a 24-well plate or tube and allow solvent to evaporate to dryness.
2. Add 2 ml (1.2×10^5) cells to each well or tube and mix.
3. Incubate in 10% CO2 at 37° for 48 hours.
4. Read platees with an inverted microscope, scoring activity from 1+ to 4+ as follows: ND (not detectable), >90%; 1+, 75-90%; 2+, 50-74%; 3+, 25-49%; 4+, <25% of control growth. Cell counts are performed on each tube and results are reported as percent of control. Alternatively, scoring may be expressed as IC50 which represents the minimum concentration of the composition required to inhibit 50% of the cell growth on the plate. […]

IC50 (P388 mouse leukemia cells, 48 hours at 37°, 10% CO2) [µg/mL] | SMILES | IC50 (Mus musculus, P388, 48 h) [µg/mL]
– | OC12C=C(c3nccc4c3[nH]c3ccccc34)C3CCN(CCCC/C=C\CC1)CC31CC3/C=C\CCCCN3C21 (stereo not shown) [Manzamine A, manzamine A, reference compound] | 0.075 (≈ 0.137 µM)
– | C1=C\CCC23CN4CCCC/C=C\CCC5(OC5C(c5nccc6c5[nH]c5ccccc56)C2CC4)C3NCCCC/1 (stereo not shown) [Manzamine B, manzamine B] | 6 (≈ 10.9 µM)
3 (≈ 8.63 µM) | C1=C\CCCCN(CCc2nccc3c2[nH]c2ccccc23)CCCC/1 [Manzamine C, manzamine C] | –
– | OC12C=C(C3NCCc4c3[nH]c3ccccc43)C3CCN(CCCC/C=C\CC1)CC31CC3/C=C\CCCCN3C21 (stereo not shown) [Manzamine D, manzamine D] | 0.5 (≈ 0.904 µM)
